The source of these data is PMC5813016 (Nature Communications, 2018).

Entries after “also recorded” stand apart in the source; their conditions may differ.

For one data set, the target named is human D3R (Homo sapiens, UniProt P35462). Briefly: Human D3R radioligand binding ([3H]-7-OH-DPAT, CHO).
In data set [1] the test system is human D1R / β-arrestin2-GFP in U2OS cells. Put plainly: β-arrestin2-GFP membrane recruitment, TIRFM, U2OS cells. The class given is cell-based. The settings on record: U2OS cells expressing human D1R, 1 μM agonist, 10 min. As for the experimental part:
This stable U2OS cell line was generated, obtained and licensed from Professor Marc G. Caron, Duke University, Durham, NC, USA. […] The U2OS cells were cultured under antibiotic selection in DMEM (Invitrogen) containing 25 mM glucose and 4 mM L-glutamine supplemented with 10% dialyzed fetal bovine serum, […] Geneticin, […] Zeocin, and 100 U/ml penicillin/streptomycin (all from Invitrogen) and incubated at 37 °C in 5% CO2. Cells from passage four through ten were used in these experiments. Cells were grown in 35 mm glass bottomed imaging dishes (Mattek Corp). Cells were incubated for 1 h in serum free media (SFM) and subsequently treated for 10 min at 37 °C with 0.01% DMSO (control) or 1 μM of all test compounds dissolved in SFM followed by immediate fixation on ice with a 4% paraformaldehyde/1× phosphate buffered saline solution.
TIRFM was used to visualize proteins at the plasma membrane of cells such as D1 receptors and recruited β-arrestin-GFP[65]. All images were captured using a Zeiss PS.1 Elyra Superresolution fluorescence microscope equipped with TIRF module.
Custom image analysis scripts were developed to automatically identify and quantify β-arrestin membrane recruitment. We employed standard methods of image processing based on grayscale morphology. First 16bit images were transformed to 8bit range via square root transformation to improve identification of punctate structure of varying intensity. Images were smoothed with small Gaussian kernel to eliminate noise (h = 2px, σ = 1). At the next step images were transformed via tophat operation with large kernel (radius 30px) to eliminate non-uniformity of the background. Second tophat transform with small kernel (radius 5px) was used to enhance signal and eliminate local intensity variation around puncta. This image was then processed to find locations of puncta intensity peaks via non-maximal suppression filter with 3px radius of region considered in non-maximal suppression, and threshold 20. Finally the boundaries of puncta were identified using marker controlled watershed operation with peaks serving as foreground markers. After having identified each puncta, we used 8bit transformed but otherwise non-processed images to quantify intensity and area of each region. We focused on two endpoints, number of puncta per cell and integrated intensity of puncta per cell (sum of the products of average intensity and area of each puncta within a cell), both adjusted for cell area as described below. The boundaries of the cells were identified via Otsu's method, followed by hole filling and identification of the largest closely connected component. The area of the foreground was used as normalization factor to account for occasional differences in cell areas in the field of view. Specifically all foreground areas across experiment were pooled and divided by the median of the areas to obtain normalization factor for each image. This factor was then used for adjustment for number of puncta and integrated intensity of puncta, which scale with the number of cells. Puncta outside of cell boundaries were filtered out.
The results were aggregated over batches of cells recorded at the same time, with three or more batches per condition, approximately 20 cells per well. The statistical significance was tested via one-way ANOVA with treatment as a factor. To address the problem of severe inequality of variances across the treatment groups assessed via Bartlett′s test, we used square root transformation. All statistical results for the number of puncta per cell and integrated intensity of puncta per cell are presented for transformed variables. Significant ANOVA findings were followed with post-hoc comparisons with Dunnett′s procedure in case of comparisons with the control group or with false discover rate adjustment[69] otherwise. All statistical tests were performed two-tailed at a 5% level of significance.

The target of data set [2] is human dopamine D1 receptor (hD1R) (Homo sapiens, UniProt P21728). Put plainly: hD1R cAMP HTRF assay (stable HEK293). The settings on record: percent of maximum response of 5 µM dopamine.
Chain of human dopamine D1 receptor (hD1R) (P21728 whole entry): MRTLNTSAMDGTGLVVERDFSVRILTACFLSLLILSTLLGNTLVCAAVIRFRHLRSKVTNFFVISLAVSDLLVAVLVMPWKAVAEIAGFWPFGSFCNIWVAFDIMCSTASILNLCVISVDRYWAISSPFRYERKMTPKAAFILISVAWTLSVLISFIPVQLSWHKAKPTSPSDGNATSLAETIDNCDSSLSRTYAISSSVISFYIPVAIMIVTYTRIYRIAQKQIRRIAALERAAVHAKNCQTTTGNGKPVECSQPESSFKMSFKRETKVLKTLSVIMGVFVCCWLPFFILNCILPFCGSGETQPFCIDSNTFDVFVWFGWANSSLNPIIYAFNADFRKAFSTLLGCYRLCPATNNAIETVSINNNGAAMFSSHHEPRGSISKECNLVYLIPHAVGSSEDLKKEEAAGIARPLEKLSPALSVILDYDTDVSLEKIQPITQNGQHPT
In data set [3] the target is human dopamine D5 receptor (hD5R) (Homo sapiens, UniProt P21918). Briefly: hD5R cAMP HTRF assay (stable HEK293). The settings on record: for Efficacy hD5R cAMP: percent of maximum response of 5 µM dopamine. A general note: Time-resolved FRET reads energy transfer from a long-lived donor to a nearby acceptor.
Chain of human dopamine D5 receptor (hD5R) (P21918 whole entry): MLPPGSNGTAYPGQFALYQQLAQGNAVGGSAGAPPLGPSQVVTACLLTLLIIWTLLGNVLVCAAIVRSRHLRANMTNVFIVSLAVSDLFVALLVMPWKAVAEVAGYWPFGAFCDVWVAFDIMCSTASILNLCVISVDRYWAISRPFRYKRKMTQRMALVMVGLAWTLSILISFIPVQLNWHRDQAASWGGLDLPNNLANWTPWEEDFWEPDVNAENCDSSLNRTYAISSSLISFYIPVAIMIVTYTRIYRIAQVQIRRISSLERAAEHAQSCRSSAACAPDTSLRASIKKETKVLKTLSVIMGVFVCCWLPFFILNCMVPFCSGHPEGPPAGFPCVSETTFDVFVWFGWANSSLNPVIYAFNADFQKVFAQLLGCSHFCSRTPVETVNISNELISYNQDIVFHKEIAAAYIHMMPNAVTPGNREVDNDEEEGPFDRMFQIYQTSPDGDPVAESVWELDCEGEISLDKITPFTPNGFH
Another data set has as its target human D2R (hD2R) (Homo sapiens, UniProt P14416). Put plainly: Human D2R radioligand binding ([3H]-spiperone, CHO).
A further data set deals with human D1R (Homo sapiens, UniProt P21728). Briefly: Human D1R radioligand binding ([3H]-SCH23390, LTK cells).
Chain of human D1R (P21728 whole entry): as the sequence (P21728 whole entry) above
The next data set concerns the target human D5R (Homo sapiens, UniProt P21918). Briefly: Human D5R radioligand binding ([3H]-SCH23390, CHEM-1).
The subject of a further data set is cynomolgus monkeys. Put plainly: Monkey spontaneous eye blink rate (EBR). The class given is in vivo, Macaca fasicularis. The settings on record: monkey; data not shown. As for the experimental part:
Increase in spontaneous EBR has been previously shown with D1 agonists and partial agonists. To confirm the specificity of the response in our particular assay set up for D1 activation, we verified that the D1 receptor antagonist SCH-39166 fully blocks the increased eye blink response of non-catechol full D1 agonist that is a close structural analog of the compounds in this paper (data not shown). All procedures involving animals were conducted with approval of the Pfizer Institutional Animal Care and Use Committee (Groton, CT) and compliant with the regulations and standards of the Animal Welfare Act (9CFR2, 9CFR3). Three male Cynomolgus macaques (Macaca fasicularis) of Mauritian origin, 7–10 years old, SPF for CHV-1, SIV, STLV1 and SRV 1, 2, 5 were used. Animals were exposed to 12 h light/dark cycle (lights on 6:00 AM – 6:00 PM). […] EBRS were recorded from chaired animals for 2 min at 10 min intervals by a trained observer through direct visual observation who was blinded to experimental conditions. Animals were chaired at approximately 7:30 AM. After vehicle or compound administration, eye blinks were recorded during the following intervals: from 10 to 50 min (0–1 h), 130 to 170 min (2–3 h), 310 to 350 min (5–6 h). Animals were returned to their home cages between two consecutive sessions and after the final recording of the day. Blood samples (1 ml) were collected from the femoral vein at 1 and 5 h after the first dose to quantitate plasma compound levels. […] A77636 was dissolved in 0.9% sterile saline, formulated fresh prior to administration, and given once per day for 3 days. […] Vehicle control was administered on day 0.
EBR data were first converted to blinks per minute. EBR were averaged by binning into 3 periods: Period 1 (0–1 h after the first dose) EBR = mean of 10, 20, 30, 40, and 50 min recordings; Period 2 (2–3 h after the first dose) EBR = mean of 130, 140, 150, 160, and 170 min recordings; Period 3 (5–6 h after the first dose) EBR = mean of 310, 320, 330, 340, and 350 min recordings. For Fig. 5c EBR data were averaged by binning data from periods 1 through 3 as daily EBR. Data from each animal was then normalized to their respective Day 1 EBR and expressed as percent of Day 1 EBR for each drug. EBR data were analyzed with SAS® 9.4 (SAS Institute Inc. Cary, NC) using a mixed linear model (Mixed Procedure) for repeated measures. The model included treatment, day, time period, and their interactions as fixed effects, and animal and animal-by-day interaction as random effects. A first order autoregressive model was used for longitudinal covariance structure. Differences between least squares means across days, overall and for each time period, were tested and adjusted for multiple comparisons via Tukey method. […]

Data set [4] is described as follows: Rat pharmacokinetic studies. The class given is in vivo, Wistar Hannover rat. The protocol:
Rat pharmacokinetic studies were conducted at BioDuro, Pharmaceutical Product Development, Inc. (Shanghai, China). Wistar Hannover rats (227–293 gram weight) were obtained from Vital River Laboratories (China). All animal studies were conducted in accordance with the Pfizer Institutional Animal Care and Use Committee (Groton, CT), using protocols approved by Pfizer PDM′s Global BA Committee (2009). Jugular vein-cannulated male Wistar Hanover rats were maintained on a 12 h light/dark cycle for a minimum of three days in a temperature-controlled and humidity-controlled environment with free access to food and water. Individual animals (n = 2 or 3 per dose/route) were administered a single dose of compound by either intravenous injection via tail vein or oral gavage based on body weight. […] The PF-6142 intravenous dose (1 mg/kg) was formulated in saline acidified with three molar equivalents of 1 N hydrochloric acid and the PF-6142 oral dose (5 mg/kg) was formulated in 0.5% methylcellulose. […] Formulations were agitated until all of the test article was dissolved. […] From each rat, serial blood samples were collected via jugular vein cannula prior to dose administration and at the following time points post-dose: 0.033 (i.v. only), 0.083, 0.25, 0.5, 1, 2, 4, 7, and 24 h. […] All blood samples were placed on wet ice until centrifugation. Following centrifugation, the plasma was transferred to polypropylene tubes and stored frozen at either −20 °C to −80 °C until analysis. Urine was collected from all intravenous-dosed rats into collection tubes from the collection intervals of 0–7 h and 7–24 h post-dose. […] All urine samples were stored at −80 °C until analysis. All samples were processed for quantitation of compound concentrations using protein precipitation methodology followed by analysis using liquid chromatography-tandem mass spectrometry (LC-MS/MS). […] The pharmacokinetic parameters (including those in Supplementary Table 3) were computed by non-compartmental analysis[61] using Watson Bioanalytical LIMS version 7.4 (Thermo Fischer Scientific, CA).

Data set [5] has as its system D1R in rat striatal neurons. Put plainly: D1R desensitization in primary rat striatal neurons (cAMP after SKF-81297 challenge). The class given is cell-based. The settings on record: rat striatal neurons pretreated 120 min with 10 μM agonist. The protocol:
Striatal neurons were chosen for the desensitization studies because they express endogenous D1 receptors and are a physiologically relevant tissue for examining neurotransmitter receptor desensitization in vitro. […] Both hemispheres of the striatum were microdissected from the embryonic rat brains and placed into HBSS. All isolated tissue was combined and washed 1× with HBSS, followed by trypsinization using a 0.05% trypsin-EDTA solution for 15 min at 37 °C. […] The cell suspension was added to the top of 5 ml complete MEM media with 1 ml of 100% FBS serum at bottom of a 15 ml tube and centrifuged at 1450 rpm for 5 min. The […] and diluted 10-20× in complete MEM and cell density determined. Cells were plated at a density of 35,000 cells/well in poly-ornithine/laminin coated 96 well plates (Biocoat, BD Falcon) and cultured in Neurobasal media supplemented with B27, 1× Glutamax, and penicillin/streptomycin (100 U/mL) (all from Invitrogen) at 37 °C in 5% CO2 for 14-16 days prior to assay. […] After the pretreatment, cells were washed twice at 5 min intervals with 250 μl/well fresh Neurobasal media. […] The concentration of cAMP (nM) from treated wells was interpolated from a cAMP standard curve by non-linear regression least squares analysis using Graphpad Prism 5.02. […] The percent desensitization was calculated as the percent decrease in cAMP relative to vehicle control. Statistical differences were compared by a one-way ANOVA with Dunnett's post-test analysis using Graphpad Prism 5.02.

Chain of human D3R (P35462 whole entry): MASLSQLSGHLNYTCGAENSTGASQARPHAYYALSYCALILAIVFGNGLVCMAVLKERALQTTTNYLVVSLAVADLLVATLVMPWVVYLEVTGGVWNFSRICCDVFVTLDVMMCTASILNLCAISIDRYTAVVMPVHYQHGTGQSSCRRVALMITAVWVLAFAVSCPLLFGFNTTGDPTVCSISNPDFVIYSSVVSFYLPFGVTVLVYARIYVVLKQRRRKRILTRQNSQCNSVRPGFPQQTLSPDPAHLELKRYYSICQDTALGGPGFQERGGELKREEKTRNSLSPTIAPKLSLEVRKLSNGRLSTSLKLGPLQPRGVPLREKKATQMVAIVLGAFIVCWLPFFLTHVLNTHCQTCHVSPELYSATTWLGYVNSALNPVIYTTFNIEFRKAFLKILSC
Chain of human D2R (hD2R) (P14416 whole entry): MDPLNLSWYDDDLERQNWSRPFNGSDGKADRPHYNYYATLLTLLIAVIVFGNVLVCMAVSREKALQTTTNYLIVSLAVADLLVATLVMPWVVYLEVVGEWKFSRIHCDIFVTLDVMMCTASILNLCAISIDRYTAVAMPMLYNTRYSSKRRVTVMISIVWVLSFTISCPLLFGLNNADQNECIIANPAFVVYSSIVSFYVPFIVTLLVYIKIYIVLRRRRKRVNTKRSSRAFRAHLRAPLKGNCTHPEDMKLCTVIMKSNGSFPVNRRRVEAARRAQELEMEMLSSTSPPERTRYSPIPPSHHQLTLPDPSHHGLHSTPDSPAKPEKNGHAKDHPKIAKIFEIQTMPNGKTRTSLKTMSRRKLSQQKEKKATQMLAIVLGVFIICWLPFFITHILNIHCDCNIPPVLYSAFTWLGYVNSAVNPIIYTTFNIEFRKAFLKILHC
Chain of human D5R (P21918 whole entry): as the sequence (P21918 whole entry) above
Method for human D2R (hD2R): (§1) Binding assays were performed using stably expressed human D1R LTK, HEK293 rat D1R (rD1R), CHO human D2R (hD2R), CHO human D3R, and Millipore CHEM-1 human D5R (HTS129M) cell lines or primary striatal tissue from cynomolgus monkey brain. […] These ligand and tissue concentrations were used in time course studies to determine linearity and equilibrium conditions for binding. Binding reached equilibrium with the specified amount of tissue by 30 min at 37 °C for hD1R, rD1R, mD1R, 20 min at 37 °C for D2R and D3R and 60 min at room temperature for D5R. […] Membrane radioligand levels were determined by liquid scintillation counting of the filter plates in 50 µl Ecolume. […] Ki values were calculated according to the Cheng-Prusoff equation.
Method for human D3R: as §1
Method for human D5R: as §1

Broadly, the Ki is a measure of affinity in units of concentration, obtained from inhibition or displacement. Compound `Oc1cc2c(cc1O)[C@H]1c3ccccc3CN[C@@H]1CC2` (racemic) [Dihydrexidine, reference compound] gave a Ki at human D3R of 387 ± 21 nM. Also, in data set [1], the “β-arrestin-GFP recruitment to the plasma membrane (TIRFM)” value (shortened to “β-arrestin-GFP recruitment”) is on record as “significantly higher signal”. Moreover, the “Efficacy hD1R cAMP” value in data set [2] was 100±2.
Regarding `NCCc1ccc(O)c(O)c1` [Dopamine, reference compound], in data set [1], the “β-arrestin-GFP recruitment” value was “membrane associated β-arrestin puncta appeared rapidly; also recorded: significantly higher signal”.
One may read the EC50 as the concentration at which the effect is half-maximal. Consider `Cn1nccc1-c1ccc(Oc2nccc3occc23)cc1` [PF-4211], for which the Ki on human D3R was above 671 nM; at human D2R (hD2R), above 4280 nM; at human D1R it was 3140 ± 335 nM; on human D5R, 1890 ± 508 nM. Besides, the EC50 in [3] was 1780 ± 144 nM. In addition, the “Efficacy hD5R cAMP” value in data set [3] was 53±1.
Take `CN1CCc2cc(Cl)c(O)cc2[C@H]2c3ccccc3CC[C@@H]21` [SCH-39166]: in the data set with cynomolgus monkeys, the “blockade of EBR increase induced by a non-catechol full D1 agonist” value is given as “fully blocks”.
As a reminder, the clearance is the rate of elimination divided by the concentration. As usually defined, the bioavailability is the share of a dose that reaches the circulation, judged against a reference dose that is usually intravenous. Turning to `Oc1cc2c(cc1O)C(c1ccccc1)CNCC2` (stereo not shown) [SKF-38393, reference compound], the CL entry in data set [4] (intravenous (1 mg/kg; PF-2334 0.1 mg/kg)) was “rapid clearance”. In data set [4] (male, Wistar Hannover, plasma, iv), this compound showed a clearance of 245 mL/min/kg. In [4] (male, Wistar Hannover, plasma, iv, read-out: Vdss), the Vd came to 3.9 L/kg. Moreover, in data set [4] (male, Wistar Hannover, plasma, oral bioavailability), the bioavailability is 9.5%. In addition, in data set [4] (male, Wistar Hannover, plasma, read-out: t½ (converted)), the half-life was 24 min. In [4] (oral bioavailability), the F entry is on record as “low oral bioavailability”. Further, on human D3R, the Ki was above 671 nM. In addition, the “percent desensitization of D1R cAMP response to 1 μM SKF-81297 challenge” value in data set [5] is 40–60%. In data set [2], the “Efficacy hD1R cAMP” value was found to be 41±3.
Turning to `Oc1cc2c(c(Cl)c1O)CCNCC2c1ccccc1` (stereo not shown) [SKF-81297, reference compound], in data set [3], the “Efficacy hD5R cAMP” value is reported as 100±1. Moreover, the “β-arrestin-GFP recruitment” value in data set [1] was “membrane associated β-arrestin puncta appeared rapidly”.
